Results from patent publication US9216956B2, “Deuterium-enriched 4-hydroxy-5-methoxy-N,1-dimethyl-2-oxo-N-[(4-trifluoro-methyl)phenyl]-1,2-dihydroquinoline-3-carboxamide” (ACTIVE BIOTECH AB, priority 2011, dated 2015).
Values after ≈ are worked out from the molar mass of the structure shown. Values joined by “and” are separate entries in the source; they are usually repeats but may differ in a detail not shown here. Equal entries are not always repeated.

Assays:
[1] = Water solubility; assay type: physicochemical; conditions: for solubility: water, pH 7, aqueous buffer
Excerpt: The water solubility of ABR-215050 and of its metabolites also was investigated. It is a well-known fact that metabolism in general aims to transform compounds to more water soluble entities (10), which mostly decreases toxicity but also facilitates renal elimination. […]

[2] = phase II, cited from earlier work
[3] = test system: CYP1A1 (AhR mediated induction); assay: TV-cell assay: luciferase gene reporter assay for AhR mediated induction of CYP1A1 in TV101L (HepG2) cells; assay type: cell-based, human; conditions: human, TV101L cells, read-out: Fold induction of luciferase expression
Protocol: (§1) ABR-215050 was tested with respect to its CYP1A inducing capability in vitro in a TV-cell assay. This assay is a luciferase gene reporter assay developed for the measurement of AhR (Aryl hydrocarbon Receptor) mediated induction of CYP1A. Human CYP1A promoters and 5′-flanking sequences were cloned into firefly luciferase expression vectors and stably integrated into the human hepatoma cell line, HepG2 (9). The isolated cell line was renamed TV101L.
(§2) The mechanism for transcription of CYP1A1 involves the binding of the inducer to the Ah receptor followed by a translocation of the ligand-Ah-receptor complex to the nucleus, where it binds to specific enhancer sequences in the 5′-flanking region of the CYP1A1 gene. These sequences are referred to as xenobiotic responsive elements (XREs).
(§3) A luciferase gene reporter assay was used for the measurement of AhR mediated induction of CYP1A1. Human CYP1A1 promoters and 5′-flanking sequences were cloned into firefly luciferase expression vectors and stably integrated into the human hepatoma cell line, HepG2 (8). The isolated cell line was renamed TV101L.
(§4) The cells were seeded in 96 well tissue culture plates 24-48 hours prior to treatment with the test compound. After the addition of ABR-215050 at a concentration of 1, 10 and 100 μM, the cells were further incubated for 12-24 hours. The cells were harvested by the addition of lysis buffer followed by a freezing/thawing cycle. An enzymatic assay was used for the determination of luciferase activity.
(§5) The same assay as used for ABR-215050 was used. The concentrations of ABR-215691 that were used and the results obtained, expressed as fold induction of luciferase expression, are shown in Table 4 and in FIG. 1.

[4] = test system: AhR (Aryl hydrocarbon Receptor) mediated induction of CYP1A1; assay: as above; assay type: cell-based, human; conditions: TV-cell assay
Protocol: as §1, §2, §3, §4, §5

[5] = In vivo pharmacokinetics in rat: plasma levels of parents and amide-N demethyl metabolite after 1:1 mixture; conditions: plasma, oral, peroral 2.5 mg/kg of each compound (1:1 mixture), read-out: Plasma level
Excerpt: Therefore, the pharmacokinetic characteristics of the amide-N methyl deuterated ABR-215050 (herein below referred to as ABR-215050-dx), wherein the amide-N methyl moiety was tri-deuterated, compared to the non-deuterated parent compound were studied in rat. […] In other words: relative to ABR-215050, the in vivo formation of ABR-215691 was reduced to only 25% when ABR-215050-dx was used.
A deuterated (also referred to as deuterium-enriched) ABR-215050 was synthesized, wherein the amide-N methyl moiety was trideuterated (ABR-215050-dx). This deuterated compound was diluted with non-deuterated ABR-215050 to a molar ratio of 1:1. The 1:1 equivalent molar mixture was administrated to rats in an in vivo experiment. Because of additional 13-carbon labeling in the quinoline scaffold, the formed amide-N demethyl metabolites could be measured selectively by means of HPLC-MS (High performance Liquid Chromatography with Mass Spectrometric detection). In Table 5, the plasma levels of ABR-215050-dx and ABR-215050 (in nM) measured in 4 different rats are shown, as well as the ratio of these two compounds.

[6] = cited from earlier work
[7] = test system: CYP1A1; assay: In vivo CYP1A1 induction in rat, EROD activity of liver microsomes
Protocol: (§6) The in vivo induction of CYP1A1 and CYP1A2 after repeated administration of ABR-215050 and of ABR-215050-dx, respectively, was studied in rat.
(§7) Test preparations B and C and blank preparation A were made as follows: For preparation B, ABR-215050 was dissolved in NaOH and sterile water at a concentration of 0.5 mg/mL. The pH of the solution was adjusted to pH 7.4-8.5. Preparation C was made in the same way, using ABR-215050-dx. Preparation A was a blank containing only water. The preparations were stored in a refrigerator for a maximum of one week before use.
(§8) On arrival at the laboratory, the test animals were 9 weeks old Sprague Dawley male rats having a body weight of 250 g. They were divided into 3 groups and were allowed to acclimatize for at least 7 days before the test. During the whole acclimatization and test period, the animals received water and feed (Labfor R70, form Kimstad, Sweden) ad libitum, and were kept under a 12 hours dark/12 hours light cycle, at a temperature of 20±2° C. and a relative humidity of 50±15%.
(§9) Before administration of any test preparation, the body weight of each animal was measured and the individual dose to be administered to an animal was determined based on the weight of the animal. Administration was performed perorally during 4 days, cf.
(§10) At 24 h after administration of the final dose, the animals were weighed and from each animal a final blood sample was withdrawn for a pharmacokinetic analysis. The animals then were euthanized and from each one the liver was withdrawn, weighed, and immediately frozen in crushed dry ice. The livers then were stored at −70° C. until preparation of microsomes.
(§11) Microsomes were prepared according to the method M-0287 “Preparation of subcellular fractions from animal tissues” and then kept at −70° C. until analysis.
(§12) The total protein concentration of the microsomal fraction was determined according to the method M-0289 “Determination of Protein according to Hartree”.

[8] = test system: CYP1A2; assay: In vivo CYP1A2 induction in rat, MROD activity of liver microsomes
Protocol: as §6, §7, §8, §9, §10, §11, §12

[9] = group mean, 1 mg/kg perorally days 1-4
[10] = individual rat, 1 mg/kg perorally days 1-4, liver microsomes 24 h after final dose, 1 mg/kg
[11] = individual rat, versus water group

COc1cccc2c1c(O)c(C(=O)N(C)c1ccc(C(F)(F)F)cc1)c(=O)n2C [ABR-215050, 4-hydroxy-5-methoxy-N,1-dimethyl-2-oxo-N-[(4-trifluoromethyl)phenyl]-1,2-dihydroquinoline-3-carboxamide, reference compound]
solubility [1]: 500 µg/mL (≈ 1230 µM)
tolerability ([2]; patients): generally well tolerated
median progression free survival ([2]; patients, placebo 3.2 months (p=0.0009)): 7.6 months
fraction of patients with disease progression during the six month period ([2]; placebo 66% (p<0.0001)): 31%
fold induction at 1 µM ([3]; 12-24 hours): 5.2
fold induction at 10 µM ([3]; 10 μM, 12-24 hours): 7.3
fold induction at 100 µM ([3]; 100 μM, 12-24 hours): 11.8
CYP1A induction (in words) [4]: did not induce CYP1A
concentration at 1 h ([5]; rat No 1, 1 h): 13.8 µM
concentration at 2 h ([5]; rat No 2, 2 h): 13.9 µM
concentration at 3 h ([5]; rat No 3, 3 h): 7.38 µM
concentration at 4 h ([5]; rat No 4, 4 h): 17.8 µM
steady state plasma levels ([6]; 1-10 mg/kg/day via drinking water): 0.4 to 1 µM
plasma half-life ([6]; in vivo): 3.4 h
CYP1A1 activity (EROD), Mean [7, 9]: 1891 pmol/mg prot/min
mean fold induction of CYP1A1 ([7]; group mean, versus water group): 42
CYP1A1 activity (EROD) [7, 10]: 1342 pmol/mg prot/min and 2440 pmol/mg prot/min
CYP1A1 Fold induction [7, 11]: 30 and 54
CYP1A2 activity (MROD), Mean [8, 9]: 334 pmol/mg prot/min
mean fold induction of CYP1A2 ([8]; group mean, versus water group): 17
CYP1A2 activity (MROD) [8, 10]: 311 pmol/mg prot/min and 357 pmol/mg prot/min
CYP1A2 Fold induction [8, 11]: 16 and 18

COc1cccc2c1c(O)c(C(=O)Nc1ccc(C(F)(F)F)cc1)c(=O)n2C [ABR-215691]
water solubility (in words) [1]: extremely low water solubility
solubility [1]: < 0.01 µg/mL
fold induction at 0.01 µM ([3]; 0.01 μM): 15.1
fold induction at 0.1 µM ([3]; 0.1 μM): 14.9
fold induction at 1 µM ([3]; 12-24 hours): 21.3
CYP1A induction (in words) [4]: substantial CYP1A inducing capacity

COc1cccc2[nH]c(=O)c(C(=O)N(C)c3ccc(C(F)(F)F)cc3)c(O)c12 [ABR-219694]
water solubility (in words) [1]: highly water soluble
CYP1A induction (in words) [4]: not to induce CYP1A

CN(C(=O)c1c(O)c2c(O)cccc2n(C)c1=O)c1ccc(C(F)(F)F)cc1 [ABR-222097]
water solubility (in words) [1]: highly water soluble
CYP1A induction (in words) [4]: not to induce CYP1A
